# Patent US20060166900A1, “Salt of morphine-6-glucuronide” (CeNeS Limited, priority 2002, published 2006)
# What was measured:
# Type in all cases: physicochemical
# [1] = Visual appearance on storage (Example 3)
# Description: (§1) Each test material was stored between 2-8*C prior to placing on stability. Each material was sub-divided into 900 mg aliquots, transferred to brown opaque HDPE plastic bottles and flushed with Argon prior to sealing. Sufficient samples were provided for each time point as well as spares for each storage condition. The samples were placed in appropriate incubators previously commissioned at storage conditions 25° C./60% RH, 40° C./75% RH and 60° C.
# The samples were stored for analysis according to the following table: […]
# [2] = Water content by Karl Fisher analysis on storage (Example 3)
# Description: Water content (% w/w) by Karl Fisher analysis
# as §1
# Water Content by Karl Fisher Analysis
# Water content was determined in duplicate on an aliquot of equilibrated material (approximately 100 mg) using a Tritrino 720 KFS Titrator.
# [3] = Colour of solution by visible spectrophotometry on storage (Example 3); conditions: 5% w/v solution in water
# Description: Colour of solution by UV spectrophotometry.
# as §1
# Colour by Visible Spectrophotometry
# A 5% w/v solution of test material was prepared in water and the absorbance measured at 420 nm in a 1 cm silica cell using a Unicam UV4 Visible/UV spectrophotometer.
# [4] = Stability indicating HPLC assay and related substances on storage (Example 3)
# Description: Assay (% w/w) and related substances determination
# as §1
# Testing Procedures Test for Identity Content and Impurities
# Testing was performed in duplicate (2×25 mg) in accordance with a stability indicating HPLC assay method. The assay results were reported as M6G as is, M6G as the anhydrous, solvent free material and the anhydrous solvent free material corrected for the salt form using the relevant conversion factor.
compound,measurement,setting,value
CN1CCC23c4c5ccc(O)c4OC2C(OC2OC(C(=O)O)C(O)C(O)C2O)C=CC3C1C5.O=P(O)(O)O (stereo not shown) [Morphine-6-glucuronide phosphate],Appearance,"[1]; 1 month, 25° C./60% RH",White crystalline powder
same,Appearance,"[1]; 1 month, 40° C./75% RH",Slightly yellow crystalline powder
same,Appearance,"[1]; 1 month, 60° C.",Pale yellow crystalline powder
same,Appearance,"[1]; 3 months, 25° C./60% RH",White crystalline powder
same,Appearance,"[1]; 3 months, 25° C./60% RH, listed as phosphate",white crystalline solids
same,Appearance,"[1]; 3 months, 40° C./75% RH",Slightly yellow crystalline powder
same,Appearance,[1]; Initial,White crystalline powder
same,Moisture,"[2]; 1 month, 25° C./60% RH",3.91 % w/w
same,Moisture,"[2]; 1 month, 40° C./75% RH",9.28 % w/w
same,Moisture,"[2]; 1 month, 60° C.",5.12 % w/w
same,Moisture,"[2]; 3 months, 25° C./60% RH",5.06 % w/w
same,Moisture,"[2]; 3 months, 40° C./75% RH",11.88 % w/w
same,increase in moisture content compared to initial,[2]; 40° C./75% RH,around 8%
same,Moisture,[2]; Initial,3.12 % w/w
same,Colour,"[3]; 1 month, 25° C./60% RH",0.053 Abs@420 nm
same,Colour,"[3]; 1 month, 40° C./75% RH",0.308 Abs@420 nm
same,Colour,"[3]; 1 month, 60° C.",0.787 Abs@420 nm
same,Colour,"[3]; 3 months, 25° C./60% RH",0.098 Abs@420 nm
same,Colour,"[3]; 3 months, 40° C./75% RH",0.878 Abs@420 nm
same,Colour,[3]; Initial,0.034 Abs@420 nm
same,Known Related Substances HN33177,"[4]; 1 month, 25° C./60% RH",0.78%
same,Known Related Substances HN67003,"[4]; 1 month, 25° C./60% RH",0.04%
same,Known Related Substances HN75083,"[4]; 1 month, 25° C./60% RH",0.03%
same,"M6G Assay, Anhydrous basis","[4]; 1 month, 25° C./60% RH",91.37 % w/w
same,"M6G Assay, As is basis","[4]; 1 month, 25° C./60% RH",84.57 % w/w
same,"M6G Assay, Corrected for the salt form","[4]; 1 month, 25° C./60% RH",110.76 % w/w
same,Total Known,"[4]; 1 month, 25° C./60% RH",0.85%
same,Total Related Substances,"[4]; 1 month, 25° C./60% RH",1.41%
same,Total Unknown,"[4]; 1 month, 25° C./60% RH",0.56%
same,Known Related Substances HN33177,"[4]; 1 month, 40° C./75% RH",0.70%
same,Known Related Substances HN67003,"[4]; 1 month, 40° C./75% RH",0.53%
same,Known Related Substances HN75083,"[4]; 1 month, 40° C./75% RH",0.14%
same,"M6G Assay, Anhydrous basis","[4]; 1 month, 40° C./75% RH",92.00 % w/w
same,"M6G Assay, As is basis","[4]; 1 month, 40° C./75% RH",80.20 % w/w
same,"M6G Assay, Corrected for the salt form","[4]; 1 month, 40° C./75% RH",111.52 % w/w
same,Total Known,"[4]; 1 month, 40° C./75% RH",1.37%
same,Total Related Substances,"[4]; 1 month, 40° C./75% RH",3.44%
same,Total Unknown,"[4]; 1 month, 40° C./75% RH",2.07%
same,Known Related Substances HN33177,"[4]; 1 month, 60° C.",0.70%
same,Known Related Substances HN67003,"[4]; 1 month, 60° C.",0.90%
same,Known Related Substances HN75076,"[4]; 1 month, 60° C.",0.03%
same,Known Related Substances HN75083,"[4]; 1 month, 60° C.",0.27%
same,Known Related Substances Morphine,"[4]; 1 month, 60° C.",0.18%
same,"M6G Assay, Anhydrous basis","[4]; 1 month, 60° C.",88.33 % w/w
same,"M6G Assay, As is basis","[4]; 1 month, 60° C.",80.69 % w/w
same,"M6G Assay, Corrected for the salt form","[4]; 1 month, 60° C.",107.08 % w/w
same,Total Known,"[4]; 1 month, 60° C.",2.08%
same,Total Related Substances,"[4]; 1 month, 60° C.",5.43%
same,Total Unknown,"[4]; 1 month, 60° C.",3.35%
same,stability based on % w/w assay,[4]; 3 month assay data,most stable
same,Known Related Substances HN33177,"[4]; 3 months, 25° C./60% RH",0.78%
same,Known Related Substances HN67003,"[4]; 3 months, 25° C./60% RH",0.16%
same,Known Related Substances HN75076,"[4]; 3 months, 25° C./60% RH",0.03%
same,Known Related Substances HN75083,"[4]; 3 months, 25° C./60% RH",0.19%
same,Known Related Substances Morphine,"[4]; 3 months, 25° C./60% RH",0.07%
same,"M6G Assay, Anhydrous basis","[4]; 3 months, 25° C./60% RH",91.16 % w/w
same,"M6G Assay, As is basis","[4]; 3 months, 25° C./60% RH",84.25 % w/w
same,"M6G Assay, Corrected for the salt form","[4]; 3 months, 25° C./60% RH",110.50 % w/w
same,Total Known,"[4]; 3 months, 25° C./60% RH",1.23%
same,Total Related Substances,"[4]; 3 months, 25° C./60% RH",2.31%
same,Total Unknown,"[4]; 3 months, 25° C./60% RH",1.08%
same,Known Related Substances HN33177,"[4]; 3 months, 40° C./75% RH",0.59%
same,Known Related Substances HN67003,"[4]; 3 months, 40° C./75% RH",0.75%
same,Known Related Substances HN75076,"[4]; 3 months, 40° C./75% RH",0.12%
same,Known Related Substances HN75083,"[4]; 3 months, 40° C./75% RH",0.06%
same,Known Related Substances Morphine,"[4]; 3 months, 40° C./75% RH",0.32%
same,"M6G Assay, Anhydrous basis","[4]; 3 months, 40° C./75% RH",92.40 % w/w
same,"M6G Assay, As is basis","[4]; 3 months, 40° C./75% RH",79.02 % w/w
same,"M6G Assay, Corrected for the salt form","[4]; 3 months, 40° C./75% RH",112.01 % w/w
same,Total Known,"[4]; 3 months, 40° C./75% RH",1.84%
same,Total Related Substances,"[4]; 3 months, 40° C./75% RH",5.99%
same,Total Unknown,"[4]; 3 months, 40° C./75% RH",4.15%
same,Known Related Substances HN33177,[4]; Initial,0.75%
same,Known Related Substances HN67003,[4]; Initial,0.04%
same,Known Related Substances HN75083,[4]; Initial,0.07%
same,"M6G Assay, Anhydrous basis",[4]; Initial,89.21 % w/w
same,"M6G Assay, As is basis",[4]; Initial,83.90 % w/w
same,"M6G Assay, Corrected for the salt form",[4]; Initial,108.12 % w/w
same,Total Known,[4]; Initial,0.86%
same,Total Related Substances,[4]; Initial,0.86%
same,Total Unknown,[4]; Initial,0.00%
same,assay values throughout the study,"[4]; all storage conditions, material a phosphate/base mixture",around 110%
